# Experimental data taken from US7268160B2, “Remedies” (Takara Bio, Inc., priority 2000, dated 2007).
# What was measured:
# [1] = test system: NGF production in the L-M cells; assay: Enhancing activity for NGF production, Reference Example 1 method (24 hours culture, NGF enzyme immunoassay of culture medium); assay type: cell-based, murine; details: for Enhancement Ratio (%): negative control = 100%
# Experimental: L-M cells (ATCC CCL-1.2) from murine fibroblasts were suspended in an M199 medium (manufactured by ICN) containing 0.5% bactopeptone (manufactured by Gibco BRL) so as to have a concentration of 1.5×10^5 cells/mi. The suspension was put in a 96-well plate in an amount of 0.1 ml each well, and the cells were aseptically cultured. After culturing the cells for 3 days, the medium was removed therefrom, and exchanged with an M199 medium containing 0.5% bovine serum albumin (manufactured by Sigma). Caffeic acid (manufactured by Sigma, dimethyl suif oxide (DMSO) solution), a substance known to have enhancing activity for NGF production, was added to each well containing the cells, so as to have a final concentration of 0, 50, 100 or 200 μM, and the cells were cultured for 24 hours. One having a caffeic acid concentration of 0 μM was used as a negative control. In addition, the final concentration of DM50 in each well was adjusted to 0.1%. After the termination of the culture, the NGF concentration in the culture medium was determined by an enzyme immunoassay method (NGF Emax Immuno Assay System, manufactured by Promega). The degree of the enhancement for NGF production of caffeic acid at each added amount was expressed in percentage as the enhancement ratio (%) on the basis of the NGF concentration in the cell culture medium at each added amount, when the NGF concentration in the cell culture medium of the negative control was defined as 100%. The experiment was carried out twice, and an average value was taken. It was shown that the enhancing activity for NGF production of caffeic acid could be assayed by this method.
# The enhancing activity for NGF production of the compound (13) (manufactured by Funakoshi) was assayed in the same manner as in Reference Example 1. The compound (13) was added so as to have a final concentration of 0, 0.5, 1, 2, 5, 10, 20 or 50 μM.
# The enhancing activity for NGF production of a compound (14) (manufactured by Sigma) was assayed in the same manner as in Reference Example 1. The compound (14) was added so as to have a final concentration of 0, 50, 100 or 200 μM.
# The enhancing activity for NGF production of a compound (15) (manufactured by Sigma) was assayed in the same manner as in Reference Example 1. The compound (15) was added so as to have a final concentration of 0, 12.5, 25 or 50 μM.
# The enhancing activity for NGF production of a compound (16) (manufactured by Wako Pure Chemical Industries) was assayed in the same manner as in Reference Example 1. The compound (16) was added so as to have a final concentration of 0, 25, 50 or 100 μM.
# [2] = test system: CDF1 mice; assay: Toxicity on oral administration to mice; assay type: in vivo; details: oral administration to a mouse once at 1000 mg/kg
# Source text: Each of the compounds used in Example 16 was orally administered to mice in the same manner as in Test Example 1 described above.
# [3] = test system: NGF; assay: Content of NGF in sciatic nerves of streptozotocin-induced diabetic rats; assay type: in vivo, SD rats; details: 4 weeks
# Experimental: Male SD rats were purchased from Nippon SLC, and used for an experiment at 5 weeks old after preliminary rearing. Streptozotocin (manufactured by Nakalai Tesque) was administered intraperitoneally to the rats at a dose of 100 mg/kg body weight to induce diabetes. The rats were divided into groups according to the blood sugar level after 5 days from the administration of streptozotocin. Next, a solution prepared by dissolving butein [compound (13)] in physiological saline was administered intraperitoneally to the rats at a dose of 100 μg per 1 kg body weight. In the control group, physiological saline alone was administered in the same manner. The rats were administered for consecutive days, and sciatic nerves (about 35 mg) were enucleated after 4 weeks from the beginning of administration. The enucleated sciatic nerves were homogenized, and NGF was extracted. The content of NGF was assayed by an enzyme immunoassay method (NGF Emax Immuno Assay System, manufactured by Promega).
# The numerical figures in the table are expressed by an average value±standard error of 6 cases. In addition, the asterisk * means that the group has a significant difference at a significance level of 5% or less as compared to the control group according to Student-t test. […] As described above, it was clarified that the NGF production was enhanced by the administration of butein to a living body.
# [4] = test system: SD rats; assay: Toxicity test in rats (Test Example 1); assay type: in vivo; details: male SD rats
# Experimental: Male SD rats were purchased from Nippon SLC, and used for an experiment from 6 week-old after preliminary rearing. A solution prepared by dissolving butein [compound (13)] in physiological saline was administered intraperitoneally, or a suspension prepared by suspending butein in 0.5% carboxymethylcellulose was given by forced oral administration, to the rats. The concentration of administration was 300 mg (N=3), 10 mg (N=3), 1 mg (N=3) or 0.1 mg (N=3) per 1 kg body weight in the case of intraperitoneal administration, and 1 g (N=2) and 0.1 g (N=3) per 1 kg body weight in the case of forced oral administration. In the control group, each of the solvents alone was administered in the same manner.
structure (smiles),measurement,setting,value
"O=C(/C=C/c1ccc(O)c(O)c1)c1ccc(O)cc1O [Compound (13), Butein]",Enhancement of NGF production (in words),[1]; L-M cells,enhanced NGF production in the L-M cells in a concentration-dependent manner
same,Enhancement Ratio (%),[1]; added amount 0.5 μM,120%
same,Enhancement Ratio (%),[1]; added amount 1 μM,462%
same,Enhancement Ratio (%),[1]; added amount 2 μM,1107%
same,Enhancement Ratio (%),[1]; added amount 5 μM,2100%
same,Enhancement Ratio (%),[1]; added amount 10 μM,3686%
same,Enhancement Ratio (%),[1]; added amount 20 μM,3927%
same,Enhancement Ratio (%),[1]; added amount 50 μM,1743%
same,Cases of death,[2],no cases of death
same,Content of NGF (pg/Sciatic Nerves),"[3]; 100 μg per 1 kg body weight intraperitoneally, consecutive days, streptozotocin diabetic rats, average ± standard error, N = 6, * significant at 5% vs control (119.2 ± 11.7)",187.7 ± 26.4* pg/Sciatic Nerves
same,Content of NGF in the nerves vs control group (in words),"[3]; 100 μg per 1 kg intraperitoneally, diabetic rats",content of NGF in the nerves was increased
same,"Toxicity findings (death, general conditions, body weight, dissection)","[4]; forced oral administration, 1 g and 0.1 g per 1 kg body weight","no cases of death, changes in the general conditions, suppression of the increase in the body weight or abnormal findings at the dissection were found"
same,"Toxicity findings (death, general conditions, body weight, dissection)","[4]; intraperitoneal administration, 300 mg, 10 mg, 1 mg or 0.1 mg per 1 kg body weight","no cases of death, changes in the general conditions, suppression of the increase in the body weight or abnormal findings at the dissection were found"
